Source: patent US20120329879A1, “BETA-ADRENERGIC RECEPTOR AGONISTS AND USES THEREOF” (THE UNIVERSITY OF TENNESSEE RESEARCH FOUNDATION, priority 2010, published 2012)
“Also recorded” adds a separate entry of the source.

Columns and labels:
[1] = test system: electrical activity of the retina of diabetic rats; assay: Electroretinogram (ERG) analyses in diabetic rats; type: in vivo, rat
Method: Each month of the experiment, electroretinogram (ERG) analyses were performed on rats from the three groups. Electroretinogram analyses were done to evaluate changes in electrical activity of the retina and as a measure of drug effectiveness. For the electroretinogram analyses, rats were dark adapted overnight. The following morning, the rats were anesthetized using an intraperitoneal injection of a ketamine (0.6 ml/kg body weight) and xylazine (0.375 ml/kg body weight) cocktail. The pupil of each eye was fully dilated using a 1% tropicamide solution (Alcon). To protect the eye and assist in maintaining a good electrical connection, a drop of methylcellulose solution was added to each eye (Celluvisc; Allergan, Irvine, Calif.). Body temperature was maintained at 37° C. with a water-based heating pad. The electroretinogram responses were recorded from both eyes simultaneously using platinum wire corneal electrodes, a forehead reference electrode, and ground electrode in the tail. The electroretinogram stimuli were delivered via the Diagnosys LLC system. All animals tested recovered from anesthesia after the electroretinogram recording sessions. No animals with gross cataract were used for electroretinogram analyses.
Electroretinogram responses were recorded in response to brief (4 ms) white LED and then from the Xenon arc lamp delivered at 2.1-second intervals for dim stimuli and 35 second frames for brighter stimuli. The range of stimulus intensities extended from −4.0 to 1.0 log cd*s/m2 for analysis of the b-wave amplitudes. Electroretinogram waveforms were recorded with a bandwidth of 0.3-500 Hz and sampled at 2 kHz by a digital acquisition system (Diagnosys) and were analyzed using MatLab (The MathWorks, Natick, Mass.). […]
For assessment of the oscillatory potentials, stimuli were administered at 3 log (cd*s/m2). Data analysis for the oscillatory potentials was obtained using MatLab software with a digital band-pass filter set for 60-300 Hz and the peak wavelets of the 4 wavelets were measured from trough to peak. […]

PKA = PKA ELISA of retinal lysates after Compound 2 eye drops in diabetic rats; type: in vivo, rat; details: topical 1 mM once daily for 4 days, compared with other doses (1 mM to 20 mM), hydrochloride
Method: To determine whether topical application of Compound 2 could reach the retina and elicit response, dose and time course studies were performed. For those studies, animals were made diabetic for 2 months using STZ. For 4 days, rats received a variety of doses of either Compound 2 (1 mM to 20 mM) or PBS once or twice each day. After the 4 days of eye drop treatment to both eyes, the diabetic and control animals were euthanized. Since beta-adrenergic receptor stimulation should increase cyclic adenosine monophosphase production and activate protein kinase A, retinal lysates were processed for a PKA ELISA (MesaCup PKA ELISA, Upstate, Temecula, Calif.). […] At 2 or 8 months, retinas were assessed for diabetes-induced degeneration of retinal cell numbers and retinal thickness (2 months) and for degenerate capillaries (8 months). TNF activity, cleaved caspase 3 and phosphorylation of insulin receptor beta and Akt were assessed at both time points. […]

COc1cc(CCNC[C@H](O)c2ccc(O)c(O)c2)cc(OC)c1OC.Cl (single isomer, unassigned) [Compound 2, 4-[1-hydroxy-2-(1-ethylamino-3-,4-,5-trimethoxyphenyl)ethyl]benzene-1,2-diol hydrochloride]
retinal function (ERG), delayed treatment ([1]; 6 month diabetic rats receiving Compound 2 therapy for 2 months): had improved retinal function
B-wave amplitude ([1]; daily topical 1 mM from one week after STZ, ERG after 6 weeks): inhibited the loss of B-wave amplitude
ERG amplitudes (a-wave, b-wave, oscillatory potentials) ([1]; diabetic rats, topical 1 mM daily from onset, over 8 months, hydrochloride): inhibited the loss of amplitude of B-wave and oscillatory potentials; also recorded: can inhibit the loss of all three components of the ERG over the entire 8-month period
PKA activity in the retina (PKA): showed the highest increase in PKA activity; also recorded: significantly increased PKA activity in the retina
